Source: ChEMBL document CHEMBL5360568, “Synthesis and anti-Alzheimer potential of novel α-amino phosphonate derivatives and probing their molecular interaction mechanism with acetylcholinesterase” (Eur J Med Chem, 2023)
Active and inactive are the calls of the source. No cut-off for these calls is given here.

Assays:
Acetylcholinesterase [1] = target: T1, Acetylcholinesterase (Electrophorus electricus, UniProt O42275); assay: Inhibition of electric eel AChE using acetylthiocholine iodide as substrate preincubated for 5 mins followed by substrate addition by DTNB based Ellman's method
T1 sequence (O42275 whole entry): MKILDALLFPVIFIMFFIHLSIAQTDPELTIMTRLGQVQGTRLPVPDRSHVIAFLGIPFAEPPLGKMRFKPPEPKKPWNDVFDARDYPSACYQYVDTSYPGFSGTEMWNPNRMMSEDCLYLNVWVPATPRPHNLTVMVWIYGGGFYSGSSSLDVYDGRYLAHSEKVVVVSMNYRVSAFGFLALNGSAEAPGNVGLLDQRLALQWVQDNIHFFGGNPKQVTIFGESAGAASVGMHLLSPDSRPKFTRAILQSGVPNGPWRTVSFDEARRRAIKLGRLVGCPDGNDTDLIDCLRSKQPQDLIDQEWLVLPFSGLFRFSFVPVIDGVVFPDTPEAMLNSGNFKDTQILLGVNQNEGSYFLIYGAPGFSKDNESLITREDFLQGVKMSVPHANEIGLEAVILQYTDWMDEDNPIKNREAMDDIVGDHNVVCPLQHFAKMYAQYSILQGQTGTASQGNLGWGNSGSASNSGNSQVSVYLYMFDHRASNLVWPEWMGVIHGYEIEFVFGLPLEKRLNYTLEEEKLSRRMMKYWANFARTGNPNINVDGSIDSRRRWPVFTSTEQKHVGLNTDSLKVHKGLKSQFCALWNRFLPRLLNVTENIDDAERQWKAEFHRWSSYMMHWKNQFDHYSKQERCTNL

Cholinesterase = Cholinesterase (Equus caballus, UniProt P81908); assay: Inhibition of equine serum BuChE using butyrylthiocholine iodide as substrate preincubated for 5 mins followed by substrate addition by DTNB based Ellman's method
Sequence of Cholinesterase (P81908 whole entry): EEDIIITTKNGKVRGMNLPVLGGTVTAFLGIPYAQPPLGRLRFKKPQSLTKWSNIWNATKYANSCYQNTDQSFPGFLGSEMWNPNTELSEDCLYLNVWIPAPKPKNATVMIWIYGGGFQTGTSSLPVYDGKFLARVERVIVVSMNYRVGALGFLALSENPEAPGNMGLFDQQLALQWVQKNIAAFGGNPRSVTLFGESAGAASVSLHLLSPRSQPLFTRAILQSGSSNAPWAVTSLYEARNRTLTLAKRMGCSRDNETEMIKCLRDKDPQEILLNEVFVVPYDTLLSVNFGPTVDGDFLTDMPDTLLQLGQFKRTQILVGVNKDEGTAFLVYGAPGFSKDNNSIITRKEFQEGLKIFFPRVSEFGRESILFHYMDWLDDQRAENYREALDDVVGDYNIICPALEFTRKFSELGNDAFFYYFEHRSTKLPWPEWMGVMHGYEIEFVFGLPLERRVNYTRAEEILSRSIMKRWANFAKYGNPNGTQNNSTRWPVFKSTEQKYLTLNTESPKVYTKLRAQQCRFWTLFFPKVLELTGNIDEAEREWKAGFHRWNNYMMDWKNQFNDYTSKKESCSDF

[2] = Antioxidant activity assessed as ABTS radical scavenging activity incubated for 30 mins by spectrophotometric analysis; assay type: functional
Acetylcholinesterase [3] = target: T2, Acetylcholinesterase (Homo sapiens, UniProt P22303); assay: Inhibition of human erythrocyte AChE using acetylthiocholine iodide as substrate preincubated for 5 mins followed by substrate addition by DTNB based Ellman's method
T2 sequence (P22303 whole entry): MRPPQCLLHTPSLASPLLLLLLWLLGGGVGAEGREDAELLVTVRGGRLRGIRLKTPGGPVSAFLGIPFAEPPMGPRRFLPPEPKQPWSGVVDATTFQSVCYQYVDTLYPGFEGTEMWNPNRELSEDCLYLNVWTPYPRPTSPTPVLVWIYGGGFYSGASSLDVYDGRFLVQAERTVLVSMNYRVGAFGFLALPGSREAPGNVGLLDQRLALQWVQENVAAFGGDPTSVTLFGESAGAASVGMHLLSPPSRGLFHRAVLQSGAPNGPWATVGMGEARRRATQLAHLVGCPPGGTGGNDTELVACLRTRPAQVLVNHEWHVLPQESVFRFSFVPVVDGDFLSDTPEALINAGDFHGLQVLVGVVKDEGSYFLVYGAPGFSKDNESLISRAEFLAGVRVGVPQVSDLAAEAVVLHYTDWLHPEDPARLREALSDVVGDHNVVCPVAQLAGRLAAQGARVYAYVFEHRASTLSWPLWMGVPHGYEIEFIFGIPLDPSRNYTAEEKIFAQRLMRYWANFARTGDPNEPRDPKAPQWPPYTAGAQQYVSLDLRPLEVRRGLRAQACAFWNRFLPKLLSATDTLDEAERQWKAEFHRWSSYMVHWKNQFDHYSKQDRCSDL

Supercoiled DNA = assay: Induction of supercoiled pBR322 plasmid DNA (unknown origin) cleavage assessed as DNA nicking at 10 uM incubated for 2 hrs by Agarose gel electrophoresis analysis; assay type: nucleic-acid assay
[4] = target: Amyloid-beta precursor protein (Homo sapiens) (UniProt P05067); assay: Modulation of amyloid beta (1 to 42) (unknown origin) self aggregation assessed as increase in fluorescence intensity at 0.03 to 0.1 uM incubated for 24 hrs by Thioflavin T fluorescence assay; conditions: filed as modulator, dose 0.03-0.1 µM
Sequence of Amyloid-beta precursor protein (Homo sapiens) (P05067 whole entry): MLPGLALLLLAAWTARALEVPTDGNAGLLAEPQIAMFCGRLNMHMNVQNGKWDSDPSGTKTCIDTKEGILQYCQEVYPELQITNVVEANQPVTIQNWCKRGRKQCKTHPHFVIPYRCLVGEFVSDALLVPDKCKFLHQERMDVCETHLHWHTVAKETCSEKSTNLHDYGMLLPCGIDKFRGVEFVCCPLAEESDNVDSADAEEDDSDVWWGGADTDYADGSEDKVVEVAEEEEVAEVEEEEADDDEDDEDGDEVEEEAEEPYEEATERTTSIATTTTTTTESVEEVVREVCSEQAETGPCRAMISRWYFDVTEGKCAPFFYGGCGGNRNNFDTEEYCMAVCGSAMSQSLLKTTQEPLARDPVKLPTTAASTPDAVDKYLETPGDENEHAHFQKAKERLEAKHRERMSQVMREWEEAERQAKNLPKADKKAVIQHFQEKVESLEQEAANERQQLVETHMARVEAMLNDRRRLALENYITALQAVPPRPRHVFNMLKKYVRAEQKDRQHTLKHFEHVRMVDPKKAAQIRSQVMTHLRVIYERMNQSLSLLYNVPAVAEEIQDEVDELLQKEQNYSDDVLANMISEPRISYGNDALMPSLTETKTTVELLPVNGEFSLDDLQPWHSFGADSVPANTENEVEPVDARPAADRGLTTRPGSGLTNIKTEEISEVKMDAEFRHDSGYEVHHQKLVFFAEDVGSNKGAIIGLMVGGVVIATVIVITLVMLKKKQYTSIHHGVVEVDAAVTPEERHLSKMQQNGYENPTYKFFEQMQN

[5] = target: Amyloid-beta precursor protein (Homo sapiens) (UniProt P05067); assay: Modulation of amyloid beta (1 to 42) (unknown origin) assembly assessed as morphological changes in amyloid beta (1 to 42) aggregates at 1 mM incubated for 3 days by FE-SEM image analysis relative to control; conditions: filed as modulator, time 3.0 day
[6] = Cytotoxicity against human SK-N-SH cells assessed as cell viability at 30 to 60 uM incubated for 24 hrs by MTT assay; assay type: toxicity, cell-based; conditions: dose 30-60 µM, read-out: Activity
[7] = Cytotoxicity against human SK-N-SH cells assessed as cell viability at 90 uM incubated for 24 hrs by MTT assay; assay type: toxicity, cell-based; conditions: read-out: Activity
SK-N-SH [8] = assay: Neuroprotective activity against H2O2 induced oxidative cell damage in human SK-N-SH cells assessed as increase in cell viability at 90 uM preincubated for 3 hrs followed by H2O2 stimulation for 2 hrs by MTT assay (Rvb= 40%); assay type: functional
SK-N-SH [9] = assay: Neuroprotective activity against H2O2 induced oxidative cell damage in human SK-N-SH cells assessed as increase in cell viability at 30 to 60 uM preincubated for 3 hrs followed by H2O2 stimulation for 2 hrs by MTT assay (Rvb= 40%); assay type: functional, cell-based; conditions: dose 30-60 µM
Acetylcholinesterase [10] = target: T2, Acetylcholinesterase; assay: Binding affinity to AChE (unknown origin) assessed as reduction in intrinsic fluorescence intensity at pH 7.2 at 0.001 to 0.009 mM incubated for 5 mins by fluorescence quenching analysis; conditions: dose 0.001-0.009 mM
Acetylcholinesterase [11] = target: T2, Acetylcholinesterase; assay: Binding affinity to AChE (unknown origin) assessed as static fluorescence quenching at pH 7.2 at 0.001 to 0.009 mM incubated for 5 mins by Stern-Volmer quenching plot based fluorescence spectroscopy; conditions: dose 0.001-0.009 mM
Acetylcholinesterase [12] = target: T2, Acetylcholinesterase; assay: Binding affinity to AChE (unknown origin) assessed as gibbs free energy change at temperature of 298 K at 0.001 to 0.009 mM incubated for 5 mins by fluorescence quenching analysis; conditions: dose 0.001-0.009 mM
Acetylcholinesterase [13] = target: T2, Acetylcholinesterase; assay: Binding affinity to AChE (unknown origin) assessed as decrease in negative bands intensity towards the baseline at […] incubated for 5 mins by Circular dichroism analysis; conditions: dose lower 0.001 nM
[14] = Selectivity ratio, ratio of IC50 for inhibition of equine serum BuChE to IC50 for inhibition of electric eel AChE
[15] = target: Acetylcholinesterase (Electrophorus electricus) (UniProt O42275); assay: Mixed type inhibition of electric eel AChE using acetylthiocholine iodide as substrate assessed as decrease in Vmax and increase in Km preincubated for 5 mins followed by substrate addition and measured after 5 mins by Ellman's method based double reciprocal Lineweaver-Burk plot analysis; conditions: time 10.0 min
Sequence of Acetylcholinesterase (Electrophorus electricus) (O42275 24-633 limits assumed): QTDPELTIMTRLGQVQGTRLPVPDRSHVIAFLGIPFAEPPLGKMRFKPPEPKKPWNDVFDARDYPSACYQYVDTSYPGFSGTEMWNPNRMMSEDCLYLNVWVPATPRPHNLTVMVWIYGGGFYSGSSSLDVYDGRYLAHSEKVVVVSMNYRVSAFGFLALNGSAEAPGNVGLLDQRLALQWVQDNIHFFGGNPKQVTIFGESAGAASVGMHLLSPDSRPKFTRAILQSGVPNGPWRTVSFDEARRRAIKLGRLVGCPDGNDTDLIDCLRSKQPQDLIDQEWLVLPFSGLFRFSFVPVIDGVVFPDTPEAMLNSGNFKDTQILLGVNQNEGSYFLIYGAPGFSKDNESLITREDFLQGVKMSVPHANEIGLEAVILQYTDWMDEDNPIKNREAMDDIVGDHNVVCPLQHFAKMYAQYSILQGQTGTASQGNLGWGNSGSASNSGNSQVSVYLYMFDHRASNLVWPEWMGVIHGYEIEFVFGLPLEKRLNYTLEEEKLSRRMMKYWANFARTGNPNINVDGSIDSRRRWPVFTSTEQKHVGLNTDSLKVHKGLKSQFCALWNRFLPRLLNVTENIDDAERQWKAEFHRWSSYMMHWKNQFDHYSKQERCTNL

Acetylcholinesterase [16] = target: T1, Acetylcholinesterase; assay: Mixed type inhibition of electric eel AChE using acetylthiocholine iodide as substrate assessed as inhibition constant of second plot of slope preincubated for 5 mins followed by substrate addition and measured after 5 mins by Ellman's method based double reciprocal Lineweaver-Burk plot analysis
Acetylcholinesterase [17] = target: T1, Acetylcholinesterase; assay: Mixed type inhibition of electric eel AChE using acetylthiocholine iodide as substrate assessed as inhibition constant of second plot of intercept preincubated for 5 mins followed by substrate addition and measured after 5 mins by Ellman's method based double reciprocal Lineweaver-Burk plot analysis
DNA = assay: Induction of pBR322 plasmid DNA (unknown origin) damage assessed as protection against Fenton's reagent induced DNA (unknown origin) damage by observing disappearance of band at 20 to 80 uM incubated for 30 mins by Agarose gel electrophoresis analysis; assay type: nucleic-acid assay; conditions: dose 20-80 µM

SMILES | IC50 (Acetylcholinesterase [1]) [µM] | IC50 (Cholinesterase) [µM] | IC50 [2] [µM] | IC50 (Acetylcholinesterase [3]) [µM] | Ratio IC50 [14] | also measured
CCOP(=O)(OCC)C(Nc1ccccc1)c1ccc(OCc2nc3ccccc3c(=O)n2-c2ccc(F)cc2)c(OC)c1 (stereo not given) | 0.921 | > 100 | > 50 | – | – | –
CCOP(=O)(OCC)C(Nc1ccc(OC)cc1)c1ccc(OCc2nc3ccccc3c(=O)n2-c2ccc(F)cc2)c(OC)c1 (stereo not given) | 0.431 | > 100 | 29 | – | – | –
CCOP(=O)(OCC)C(Nc1nncs1)c1ccc(OCc2nc3ccccc3c(=O)n2-c2ccc(F)cc2)c(OC)c1 (stereo not given) | 0.361 | > 100 | > 50 | 3.37 | – | –
CCOP(=O)(OCC)C(Nc1ccccc1C(F)(F)F)c1ccc(OCc2nc3ccccc3c(=O)n2-c2ccc(F)cc2)c(OC)c1 (stereo not given) | 0.341 | > 100 | 36.5 | 4.93 | – | –
Cc1c(C)c2c(c(C)c1O)CCC(C)(C(=O)O)O2 (stereo not given) [TROLOX] | – | – | 25.1 | – | – | –
CCOP(=O)(OCC)C(Nc1ccccc1OC)c1ccc(OCc2nc3ccccc3c(=O)n2-c2ccc(F)cc2)c(OC)c1 (stereo not given) | 0.296 | 10.6 | 28.8 | 2.65 | – | Activity (Supercoiled DNA): inactive; Activity [4]: Active; Activity [5]: Active; viability at 24 h, up to 60 µM [6]: > 90%; viability at 24 h, 90 µM [7]: 85%; Activity (SK-N-SH [8]): 65%; Activity (SK-N-SH [9]): Active; Activity (Acetylcholinesterase [10]): Dose-Dependent Effect; Activity (Acetylcholinesterase [11]): Active; deltaG (Acetylcholinesterase [12]): -6.88 kcal/mol; Activity (Acetylcholinesterase [13]): Dose-Dependent Effect
CCOP(=O)(OCC)C(Nc1ccccc1Br)c1ccc(OCc2nc3ccccc3c(=O)n2-c2ccc(F)cc2)c(OC)c1 (stereo not given) | 0.473 | > 100 | > 50 | – | – | –
CCOP(=O)(OCC)C(Nc1ccccc1O)c1ccc(OCc2nc3ccccc3c(=O)n2-c2ccc(F)cc2)c(OC)c1 (stereo not given) | 0.558 | > 100 | 41.2 | – | – | –
CCOP(=O)(OCC)C(Nc1ccc(Br)cc1)c1ccc(OCc2nc3ccccc3c(=O)n2-c2ccc(F)cc2)c(OC)c1 (stereo not given) | 0.487 | > 100 | > 50 | – | – | –
CCOP(=O)(OCC)C(Nc1ccccc1C)c1ccc(OCc2nc3ccccc3c(=O)n2-c2ccc(F)cc2)c(OC)c1 (stereo not given) | 0.393 | 33.8 | > 50 | 5.35 | 86 | –
COc1ccc2c3c1O[C@H]1C[C@@H](O)C=C[C@@]31CCN(C)C2 | – | – | – | – | – | Activity [4]: Dose-Dependent Effect
CCOP(=O)(OCC)C(Nc1cc(C)cc(C)c1)c1ccc(OCc2nc3ccccc3c(=O)n2-c2ccc(F)cc2)c(OC)c1 (stereo not given) | 0.465 | 26.4 | 46.2 | – | 56.8 | –
CCOP(=O)(OCC)C(Nc1ccccc1C(C)=O)c1ccc(OCc2nc3ccccc3c(=O)n2-c2ccc(F)cc2)c(OC)c1 (stereo not given) | 0.378 | 12.1 | 50 | 5.62 | 31.9 | –
CCOP(=O)(OCC)C(Nc1c(C)cccc1C)c1ccc(OCc2nc3ccccc3c(=O)n2-c2ccc(F)cc2)c(OC)c1 (stereo not given) | 0.353 | > 100 | > 50 | 3.02 | – | –
CCOP(=O)(OCC)C(Nc1ccc(C(=O)O)cc1)c1ccc(OCc2nc3ccccc3c(=O)n2-c2ccc(F)cc2)c(OC)c1 (stereo not given) | 0.289 | 20.2 | 30.1 | 1.16 | 70.1 | Activity (Supercoiled DNA): inactive; inhibition [15]: Active; Ki (Acetylcholinesterase [16]): 0.297 µM; Ki (Acetylcholinesterase [17]): 0.292 µM; Activity [4]: Active; Activity [5]: Active; viability at 24 h, up to 60 µM [6]: > 90%; Activity (SK-N-SH [8]): 65%; Activity (SK-N-SH [9]): Active; Activity (Acetylcholinesterase [10]): Dose-Dependent Effect; Activity (Acetylcholinesterase [11]): Active; deltaG (Acetylcholinesterase [12]): -7.54 kcal/mol; Activity (Acetylcholinesterase [13]): Dose-Dependent Effect
CCOP(=O)(OCC)C(Nc1cccc(Cl)c1Cl)c1ccc(OCc2nc3ccccc3c(=O)n2-c2ccc(F)cc2)c(OC)c1 (stereo not given) | 0.306 | 23.3 | 29.3 | 2.55 | 76 | Activity (Supercoiled DNA): Active; Activity (DNA): Active; Activity [4]: Active; Activity [5]: Active; viability at 24 h, up to 60 µM [6]: > 90%; viability at 24 h, 90 µM [7]: 85%; Activity (SK-N-SH [8]): 65%; Activity (SK-N-SH [9]): Active; Activity (Acetylcholinesterase [10]): Dose-Dependent Effect; Activity (Acetylcholinesterase [11]): Active; deltaG (Acetylcholinesterase [12]): -6.94 kcal/mol; Activity (Acetylcholinesterase [13]): Dose-Dependent Effect
CCOP(=O)(OCC)C(Nc1ccccc1C#N)c1ccc(OCc2nc3ccccc3c(=O)n2-c2ccc(F)cc2)c(OC)c1 (stereo not given) | 0.322 | 11 | 39.4 | 2.94 | 34.2 | –
CCOP(=O)(OCC)C(Nc1ccc(Cl)cc1)c1ccc(OCc2nc3ccccc3c(=O)n2-c2ccc(F)cc2)c(OC)c1 (stereo not given) | 0.639 | > 100 | 33.2 | – | – | –
CCOP(=O)(OCC)C(Nc1cc(C)ccc1C)c1ccc(OCc2nc3ccccc3c(=O)n2-c2ccc(F)cc2)c(OC)c1 (stereo not given) | 0.414 | 18.7 | > 50 | 6.05 | 45.1 | –
CCOP(=O)(OCC)C(Nc1ccc([N+](=O)[O-])cc1)c1ccc(OCc2nc3ccccc3c(=O)n2-c2ccc(F)cc2)c(OC)c1 (stereo not given) | 0.315 | > 100 | 28 | 1.78 | – | –
CCOP(=O)(OCC)C(Nc1ccc(C)cc1)c1ccc(OCc2nc3ccccc3c(=O)n2-c2ccc(F)cc2)c(OC)c1 (stereo not given) | 0.669 | > 100 | 39.3 | – | – | –
CCOP(=O)(OCC)C(Nc1ccccc1CC)c1ccc(OCc2nc3ccccc3c(=O)n2-c2ccc(F)cc2)c(OC)c1 (stereo not given) | 0.532 | 29.6 | > 50 | – | 55.7 | –
CCOP(=O)(OCC)C(Nc1cccc(O)c1)c1ccc(OCc2nc3ccccc3c(=O)n2-c2ccc(F)cc2)c(OC)c1 (stereo not given) | 0.369 | > 100 | 35.8 | 4.34 | – | –
CCOP(=O)(OCC)C(Nc1ccc(F)cc1)c1ccc(OCc2nc3ccccc3c(=O)n2-c2ccc(F)cc2)c(OC)c1 (stereo not given) | 0.805 | 35.4 | > 50 | – | 43.9 | –
